Data from US20130164384A1, “METHODS OF TREATING BOWEL DISEASES BY ADMINISTERING A BOWEL CLEANSER AND AN ANTIBIOTIC” (Salix Pharmaceuticals, Ltd., priority 2008, published 2013).

Test system: subjects with dIBS
Test: Study of three rifaximin doses in subjects with dIBS: adequate relief of IBS symptoms and bloating
Assay type: in vivo, human
Conditions: for Adequate Relief of Bloating: Success / Adequate Relief of IBS Symptoms: Failure / Adequate Relief of IBS Symptoms: Success / Adequate Relief of Bloating: Failure: end of treatment phase
Protocol: This example relates to a study of three rifaximin doses in subjects with dIBS. Subjects were randomized to receive daily BID doses of rifaximin 275 mg, 550 mg, or 1100 mg for 14 days. A fifth group of subjects received rifaximin 550 mg BID for a period of 28 days. Subjects were questioned on the relief of overall IBS symptoms and bloating. […] The analyses defined success as a “yes” response to questions regarding adequate relief of SGA or IBS-B in at least 2 out of the final 3 weeks of the double-blind treatment period.
Baseline severity was determined using 7-point Lickert scales during screening for Abdominal Pain/Discomfort and Bloating, and the number, type (normal, hard, loose) and urgency of bowel movements.
Duration of effect was assessed in a 12 week follow-up period. Subjects that responded in the 4 week double-blind treatment period were followed for an additional 3 months. Fifty-three (53) subjects from the 550 mg 2 w and 59 subjects from the placebo-treated groups participated in this study phase.
Subjects recorded the following information on dIBS symptoms daily throughout the duration of the study: • Number of normal stools/day; • Number of hard and lumpy stools/day; • Number of loose or watery stools/day; • Number of loose or watery stools/day with the symptom of urgency; • How bothersome is abdominal pain and discomfort? [7-point response scale: 0 (not at all) to 6 (a very great deal)]; • How bothersome is bloating? [(7-point response scale: 0 (not at all) to 6 (a very great deal)].
Weekly summary variables were computed by averaging the recorded values over all pre-treatment days or over the seven days preceding the time point of interest for post-treatment assessments. For example, baseline included Days −10 to 0, Week 1 included Days 1 to 7, Week 2 included Days 8 to 14, and so forth through Week 16. Changes from baseline variables were computed for each weekly summary score.

[1] = RFX 550 2 w (550 mg BID 14 days), had screening colonoscopy, Average Bloating Discomfort Score at Baseline >4
[2] = RFX 550 4 w (550 mg BID 28 days), Had a Screening Colonoscopy: No
[3] = RFX 550 4 w (550 mg BID 28 days), Had a Screening Colonoscopy: Yes
[4] = RFX 550 4 w (550 mg BID 28 days), Screening Colonoscopy <=26 Days
[5] = RFX 550 4 w (550 mg BID 28 days), Screening Colonoscopy >26 Days
[6] = RFX 550 4 w (550 mg BID 28 days), had screening colonoscopy, Average Abdominal Pain Discomfort Score at Baseline <=4
[7] = RFX 550 4 w (550 mg BID 28 days), had screening colonoscopy, Average Abdominal Pain Discomfort Score at Baseline >4
[8] = RFX 550 4 w (550 mg BID 28 days), had screening colonoscopy, Average Bloating Discomfort Score at Baseline <=4
[9] = RFX 550 4 w (550 mg BID 28 days), had screening colonoscopy, Average Bloating Discomfort Score at Baseline >4
[10] = RFX 1100 2 w (1100 mg BID 14 days), Had a Screening Colonoscopy: No
[11] = RFX 1100 2 w (1100 mg BID 14 days), Had a Screening Colonoscopy: Yes
[12] = RFX 1100 2 w (1100 mg BID 14 days), Screening Colonoscopy <=26 Days
[13] = RFX 1100 2 w (1100 mg BID 14 days), Screening Colonoscopy >26 Days
[14] = RFX 1100 2 w (1100 mg BID 14 days), had screening colonoscopy, Average Abdominal Pain Discomfort Score at Baseline <=4
[15] = RFX 1100 2 w (1100 mg BID 14 days), had screening colonoscopy, Average Abdominal Pain Discomfort Score at Baseline >4
[16] = RFX 1100 2 w (1100 mg BID 14 days), had screening colonoscopy, Average Bloating Discomfort Score at Baseline <=4
[17] = RFX 1100 2 w (1100 mg BID 14 days), had screening colonoscopy, Average Bloating Discomfort Score at Baseline >4

## COC1/C=C/OC2(C)Oc3c(C)c(O)c4c(O)c(c5c(nc6cc(C)ccn65)c4c3C2=O)NC(=O)/C(C)=C\C=C\C(C)C(O)C(C)C(O)C(C)C(OC(C)=O)C1C [RFX, (2S,16Z,18E,20S,21S,22R,23R,24R,25S,26S,27S,28E)-5,6,21,23,25 Pentahydroxy-27-methoxy-2,4,11,16,20,22,24,26-octamethyl-2,7-(epoxypentadeca-(1,11,13)trienimino)benzofuro(4,5-e)pyrido(1,2,-a)benzimidazole-1,15(2H)-dione,25-acetate]
[1]
  Adequate Relief of Bloating: Success: 8 (50.0%) n (%)
  Adequate Relief of IBS Symptoms: Failure: 8 (50.0%) n (%)
  Adequate Relief of IBS Symptoms: Success: 8 (50.0%) n (%)
[2]
  Adequate Relief of Bloating: Failure: 37 (64.9%) n (%)
  Adequate Relief of Bloating: Success: 20 (35.1%) n (%)
  Adequate Relief of IBS Symptoms: Failure: 35 (61.4%) n (%)
  Adequate Relief of IBS Symptoms: Success: 22 (38.6%) n (%)
[3]
  Adequate Relief of Bloating: Failure: 23 (56.1%) n (%)
  Adequate Relief of Bloating: Success: 18 (43.9%) n (%)
  Adequate Relief of IBS Symptoms: Failure: 22 (53.7%) n (%)
  Adequate Relief of IBS Symptoms: Success: 19 (46.3%) n (%)
[4]
  Adequate Relief of Bloating: Failure: 12 (48.0%) n (%)
  Adequate Relief of Bloating: Success: 13 (52.0%) n (%)
  Adequate Relief of IBS Symptoms: Failure: 11 (44.0%) n (%)
  Adequate Relief of IBS Symptoms: Success: 14 (56.0%) n (%)
[5]
  Adequate Relief of Bloating: Failure: 11 (68.8%) n (%)
  Adequate Relief of Bloating: Success: 5 (31.3%) n (%)
  Adequate Relief of IBS Symptoms: Failure: 11 (68.8%) n (%)
  Adequate Relief of IBS Symptoms: Success: 5 (31.3%) n (%)
[6]
  Adequate Relief of Bloating: Failure: 19 (59.4%) n (%)
  Adequate Relief of Bloating: Success: 13 (40.6%) n (%)
  Adequate Relief of IBS Symptoms: Failure: 19 (59.4%) n (%)
  Adequate Relief of IBS Symptoms: Success: 13 (40.6%) n (%)
[7]
  Adequate Relief of Bloating: Failure: 4 (44.4%) n (%)
  Adequate Relief of Bloating: Success: 5 (55.6%) n (%)
  Adequate Relief of IBS Symptoms: Failure: 3 (33.3%) n (%)
  Adequate Relief of IBS Symptoms: Success: 6 (66.7%) n (%)
[8]
  Adequate Relief of Bloating: Failure: 15 (57.7%) n (%)
  Adequate Relief of Bloating: Success: 11 (42.3%) n (%)
  Adequate Relief of IBS Symptoms: Failure: 15 (57.7%) n (%)
  Adequate Relief of IBS Symptoms: Success: 11 (42.3%) n (%)
[9]
  Adequate Relief of Bloating: Failure: 8 (53.3%) n (%)
  Adequate Relief of Bloating: Success: 7 (46.7%) n (%)
  Adequate Relief of IBS Symptoms: Failure: 7 (46.7%) n (%)
  Adequate Relief of IBS Symptoms: Success: 8 (53.3%) n (%)
[10]
  Adequate Relief of Bloating: Failure: 30 (66.7%) n (%)
  Adequate Relief of Bloating: Success: 15 (33.3%) n (%)
  Adequate Relief of IBS Symptoms: Failure: 27 (60.0%) n (%)
  Adequate Relief of IBS Symptoms: Success: 18 (40.0%) n (%)
[11]
  Adequate Relief of Bloating: Failure: 31 (57.4%) n (%)
  Adequate Relief of Bloating: Success: 23 (42.6%) n (%)
  Adequate Relief of IBS Symptoms: Failure: 31 (57.4%) n (%)
  Adequate Relief of IBS Symptoms: Success: 23 (42.6%) n (%)
[12]
  Adequate Relief of Bloating: Failure: 20 (55.6%) n (%)
  Adequate Relief of Bloating: Success: 16 (44.4%) n (%)
  Adequate Relief of IBS Symptoms: Failure: 19 (52.8%) n (%)
  Adequate Relief of IBS Symptoms: Success: 17 (47.2%) n (%)
[13]
  Adequate Relief of Bloating: Failure: 11 (61.1%) n (%)
  Adequate Relief of Bloating: Success: 7 (38.9%) n (%)
  Adequate Relief of IBS Symptoms: Failure: 12 (66.7%) n (%)
  Adequate Relief of IBS Symptoms: Success: 6 (33.3%) n (%)
[14]
  Adequate Relief of Bloating: Failure: 22 (50.0%) n (%)
  Adequate Relief of Bloating: Success: 22 (50.0%) n (%)
  Adequate Relief of IBS Symptoms: Failure: 23 (52.3%) n (%)
  Adequate Relief of IBS Symptoms: Success: 21 (47.7%) n (%)
[15]
  Adequate Relief of Bloating: Failure: 9 (90.0%) n (%)
  Adequate Relief of Bloating: Success: 1 (10.0%) n (%)
  Adequate Relief of IBS Symptoms: Failure: 8 (80.0%) n (%)
  Adequate Relief of IBS Symptoms: Success: 2 (20.0%) n (%)
[16]
  Adequate Relief of Bloating: Failure: 21 (47.7%) n (%)
  Adequate Relief of Bloating: Success: 23 (52.3%) n (%)
  Adequate Relief of IBS Symptoms: Failure: 21 (47.7%) n (%)
  Adequate Relief of IBS Symptoms: Success: 23 (52.3%) n (%)
[17]
  Adequate Relief of Bloating: Failure: 10 (100.0%) n (%)
  Adequate Relief of Bloating: Success: 0 n (%)
  Adequate Relief of IBS Symptoms: Failure: 10 (100.0%) n (%)
  Adequate Relief of IBS Symptoms: Success: 0 n (%)
Purgative prior to treatment
  Likelihood of treatment effect with a purgative prior to rifaximin versus no cleanser: much more likely to have a treatment effect
Subjects who had a screening colonoscopy
  Rate of success in relief of symptoms with screening colonoscopy (GI cleanser) prior to rifaximin: higher rate of success in relief of symptoms
